System: 996289-038-R-J1-PDC spheroid viability
Assay: Anticancer human tumor 996289-038-R-J1-PDC patient-derived colon adenocarcinoma cell line growth inhibition [PI3K]
Conditions: spheroids with HUVEC and MSC; for IC50: curve of first compound; for viability, T/C: stronger effect = lower value
How it was run: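 We assembled tumor spheroids that included a stromal compartment of HUVEC and MSCs, then exposed them to targeted agents alone and together with PI3K pathway inhibitors. Concentration series descended by half-log from clinically achievable Cmax levels. Viability served as the endpoint.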

[1] = second compound 0.00316 µM, first compound 0.0316 µM
[2] = second compound 0.00316 µM, first compound 0.1 µM
[3] = second compound 0.01 µM, first compound 0.0316 µM
[4] = second compound 0.01 µM, first compound 0.1 µM
[5] = second compound 0.0316 µM, first compound 0.0316 µM
[6] = second compound 0.0316 µM, first compound 0.1 µM
[7] = second compound 0.1 µM, first compound 0.0316 µM
[8] = second compound 0.1 µM, first compound 0.1 µM
[9] = second compound 0.316 µM, first compound 0.0316 µM
[10] = second compound 0.316 µM, first compound 0.1 µM
[11] = second compound 1 µM, first compound 0.0316 µM
[12] = second compound 1 µM, first compound 0.1 µM
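Also: spheroids exposed to compounds for seven days before viability read.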
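For viability, T/C in this document: luminescence used as a proxy for viable cell amount; percent viability relative to DMSO vehicle control as 100%.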

For `CC(C)NCC(C(=O)N1CCN(c2ncnc3c2C(C)CC3O)CC1)c1ccc(Cl)cc1` (centres undefined) + CC(Nc1ccc2c(c1)OCCn1cc(N3C(=O)OCC3C(F)F)nc1-2)C(N)=O, which IC50 (second compound 0.00316 µM) is on record?
Its IC50 is greater than 10 µM.

What about the IC50 (second compound 0.01 µM) of the same molecule?
The IC50 was greater than 10 µM.

And the IC50 (second compound 0.0316 µM)?
The IC50 was greater than 10 µM.

What about the IC50 (second compound 0.1 µM) of the same molecule?
The IC50 was greater than 10 µM.

And the IC50 (second compound 0.316 µM)?
Its IC50 is greater than 10 µM.

And the IC50 (second compound 1 µM)?
Its IC50 is greater than 10 µM.

What about the viability, T/C [1] of the same molecule?
The viability, T/C was 86%.

And the viability, T/C [2]?
The viability, T/C was 95.3%.

And the viability, T/C (second compound 0.00316 µM, first compound 0.316 µM)?
The viability, T/C was 98.6%.

And the viability, T/C (second compound 0.00316 µM, first compound 1 µM)?
Its viability, T/C is 98.1%.

What about the viability, T/C (second compound 0.00316 µM, first compound 3.16 µM) of the same molecule?
Its viability, T/C is 85.3%.

And the viability, T/C (second compound 0.00316 µM, first compound 10 µM)?
Its viability, T/C is 66.8%.

And the viability, T/C [3]?
The viability, T/C was 87.2%.

What about the viability, T/C [4] of the same molecule?
Its viability, T/C is 88%.

What about the viability, T/C (second compound 0.01 µM, first compound 0.316 µM) of the same molecule?
Its viability, T/C is 91.6%.

And the viability, T/C (second compound 0.01 µM, first compound 1 µM)?
Its viability, T/C is 91.8%.

What about the viability, T/C (second compound 0.01 µM, first compound 3.16 µM) of the same molecule?
The viability, T/C was 82.1%.

And the viability, T/C (second compound 0.01 µM, first compound 10 µM)?
Its viability, T/C is 54.7%.

And the viability, T/C [5]?
The viability, T/C was 105%.

What about the viability, T/C [6] of the same molecule?
Its viability, T/C is 91.6%.

What about the viability, T/C (second compound 0.0316 µM, first compound 0.316 µM) of the same molecule?
Its viability, T/C is 88.7%.

What about the viability, T/C (second compound 0.0316 µM, first compound 1 µM) of the same molecule?
Its viability, T/C is 88.4%.

What about the viability, T/C (second compound 0.0316 µM, first compound 3.16 µM) of the same molecule?
The viability, T/C was 78.5%.

And the viability, T/C (second compound 0.0316 µM, first compound 10 µM)?
Its viability, T/C is 53.6%.

And the viability, T/C [7]?
Its viability, T/C is 79.8%.

What about the viability, T/C [8] of the same molecule?
The viability, T/C was 71.1%.

What about the viability, T/C (second compound 0.1 µM, first compound 0.316 µM) of the same molecule?
The viability, T/C was 76%.

And the viability, T/C (second compound 0.1 µM, first compound 1 µM)?
Its viability, T/C is 80%.

What about the viability, T/C (second compound 0.1 µM, first compound 3.16 µM) of the same molecule?
Its viability, T/C is 62%.

And the viability, T/C (second compound 0.1 µM, first compound 10 µM)?
Its viability, T/C is 67.5%.

And the viability, T/C [9]?
The viability, T/C was 57.9%.

What about the viability, T/C [10] of the same molecule?
Its viability, T/C is 81.2%.

And the viability, T/C (second compound 0.316 µM, first compound 0.316 µM)?
The viability, T/C was 64.3%.

What about the viability, T/C (second compound 0.316 µM, first compound 1 µM) of the same molecule?
The viability, T/C was 65%.

What about the viability, T/C (second compound 0.316 µM, first compound 3.16 µM) of the same molecule?
Its viability, T/C is 73.7%.

What about the viability, T/C (second compound 0.316 µM, first compound 10 µM) of the same molecule?
The viability, T/C was 46%.

What about the viability, T/C [11] of the same molecule?
Its viability, T/C is 64.9%.

What about the viability, T/C [12] of the same molecule?
Its viability, T/C is 57.1%.

And the viability, T/C (second compound 1 µM, first compound 0.316 µM)?
Its viability, T/C is 53.5%.

And the viability, T/C (second compound 1 µM, first compound 1 µM)?
Its viability, T/C is 55.3%.

What about the viability, T/C (second compound 1 µM, first compound 3.16 µM) of the same molecule?
The viability, T/C was 52.5%.

And the viability, T/C (second compound 1 µM, first compound 10 µM)?
The viability, T/C was 53.5%.

With `Cn1ncnc1[C@H]1c2n[nH]c(=O)c3cc(F)cc(c23)N[C@@H]1c1ccc(F)cc1` + CC(Nc1ccc2c(c1)OCCn1cc(N3C(=O)OCC3C(F)F)nc1-2)C(N)=O as the molecule, how does the IC50 (second compound 0.00316 µM) read?
Its IC50 is greater than 0.1 µM.

And the IC50 (second compound 0.01 µM)?
The IC50 was greater than 0.1 µM.

And the IC50 (second compound 0.0316 µM)?
Its IC50 is greater than 0.1 µM.

And the IC50 (second compound 0.1 µM)?
Its IC50 is greater than 0.1 µM.

What about the IC50 (second compound 0.316 µM) of the same molecule?
Its IC50 is greater than 0.1 µM.

And the IC50 (second compound 1 µM)?
Its IC50 is greater than 0.1 µM.

And the viability, T/C (second compound 0.00316 µM, first compound 0.000316 µM)?
The viability, T/C was 109%.

What about the viability, T/C (second compound 0.00316 µM, first compound 0.001 µM) of the same molecule?
The viability, T/C was 104%.

And the viability, T/C (second compound 0.00316 µM, first compound 0.00316 µM)?
The viability, T/C was 95%.

And the viability, T/C (second compound 0.00316 µM, first compound 0.01 µM)?
Its viability, T/C is 112%.

What about the viability, T/C [1] of the same molecule?
The viability, T/C was 99.5%.

And the viability, T/C [2]?
The viability, T/C was 90.2%.

And the viability, T/C (second compound 0.01 µM, first compound 0.000316 µM)?
The viability, T/C was 103%.

What about the viability, T/C (second compound 0.01 µM, first compound 0.001 µM) of the same molecule?
The viability, T/C was 102%.

What about the viability, T/C (second compound 0.01 µM, first compound 0.00316 µM) of the same molecule?
Its viability, T/C is 103%.

And the viability, T/C (second compound 0.01 µM, first compound 0.01 µM)?
Its viability, T/C is 111%.

What about the viability, T/C [3] of the same molecule?
The viability, T/C was 106%.

What about the viability, T/C [4] of the same molecule?
The viability, T/C was 98.6%.

And the viability, T/C (second compound 0.0316 µM, first compound 0.000316 µM)?
Its viability, T/C is 114%.

What about the viability, T/C (second compound 0.0316 µM, first compound 0.001 µM) of the same molecule?
The viability, T/C was 85.7%.

And the viability, T/C (second compound 0.0316 µM, first compound 0.00316 µM)?
Its viability, T/C is 88.5%.

What about the viability, T/C (second compound 0.0316 µM, first compound 0.01 µM) of the same molecule?
The viability, T/C was 101%.

What about the viability, T/C [5] of the same molecule?
Its viability, T/C is 97.3%.

And the viability, T/C [6]?
Its viability, T/C is 85.4%.

What about the viability, T/C (second compound 0.1 µM, first compound 0.000316 µM) of the same molecule?
Its viability, T/C is 89.1%.

What about the viability, T/C (second compound 0.1 µM, first compound 0.001 µM) of the same molecule?
The viability, T/C was 87.6%.

And the viability, T/C (second compound 0.1 µM, first compound 0.00316 µM)?
The viability, T/C was 77.5%.

And the viability, T/C (second compound 0.1 µM, first compound 0.01 µM)?
Its viability, T/C is 91.6%.

What about the viability, T/C [7] of the same molecule?
The viability, T/C was 92%.

What about the viability, T/C [8] of the same molecule?
The viability, T/C was 78.3%.

What about the viability, T/C (second compound 0.316 µM, first compound 0.000316 µM) of the same molecule?
Its viability, T/C is 81.7%.

What about the viability, T/C (second compound 0.316 µM, first compound 0.001 µM) of the same molecule?
Its viability, T/C is 77.8%.

And the viability, T/C (second compound 0.316 µM, first compound 0.00316 µM)?
The viability, T/C was 81.2%.

And the viability, T/C (second compound 0.316 µM, first compound 0.01 µM)?
The viability, T/C was 82.2%.

What about the viability, T/C [9] of the same molecule?
Its viability, T/C is 79.2%.

What about the viability, T/C [10] of the same molecule?
Its viability, T/C is 68.7%.

And the viability, T/C (second compound 1 µM, first compound 0.000316 µM)?
Its viability, T/C is 53%.

And the viability, T/C (second compound 1 µM, first compound 0.001 µM)?
Its viability, T/C is 59.8%.

What about the viability, T/C (second compound 1 µM, first compound 0.00316 µM) of the same molecule?
The viability, T/C was 68.6%.

And the viability, T/C (second compound 1 µM, first compound 0.01 µM)?
The viability, T/C was 58.1%.

And the viability, T/C [11]?
Its viability, T/C is 59.2%.

And the viability, T/C [12]?
Its viability, T/C is 54.2%.
